Assay results reported in patent US20240398812A1 (Caraway Therapeutics, Inc., priority 2021, published 2024).

What was measured:
Assay type in all cases: cell-based
human TRPML1 = human TRPML1 (Homo sapiens, UniProt Q9GZU1); assay: Fluorescent TRPML1 assay (Fluo4-AM calcium fluorescence, HEK-293 Trex cells)
Summary of the method: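 Agonist EC50 from non-linear regression of percent activity versus on-plate controls, calcium signal read at 480/540 nm. Compounds spanned 6 nM–20 μM final in triplicate. Cells: doxycycline-induced HEK-293 Trex with cell-surface human TRPML1 mutant, Fluo4-AM loaded, in Ringer's containing 10 mM calcium.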

TRPML2 = molecular target: T1, TRPML2 (Homo sapiens, UniProt Q8IZK6); assay: Fluorescent TRPML2 assay (as for TRPML1)
T1 construct: expressed in transfected cells
T1 sequence (Q8IZK6 1-566): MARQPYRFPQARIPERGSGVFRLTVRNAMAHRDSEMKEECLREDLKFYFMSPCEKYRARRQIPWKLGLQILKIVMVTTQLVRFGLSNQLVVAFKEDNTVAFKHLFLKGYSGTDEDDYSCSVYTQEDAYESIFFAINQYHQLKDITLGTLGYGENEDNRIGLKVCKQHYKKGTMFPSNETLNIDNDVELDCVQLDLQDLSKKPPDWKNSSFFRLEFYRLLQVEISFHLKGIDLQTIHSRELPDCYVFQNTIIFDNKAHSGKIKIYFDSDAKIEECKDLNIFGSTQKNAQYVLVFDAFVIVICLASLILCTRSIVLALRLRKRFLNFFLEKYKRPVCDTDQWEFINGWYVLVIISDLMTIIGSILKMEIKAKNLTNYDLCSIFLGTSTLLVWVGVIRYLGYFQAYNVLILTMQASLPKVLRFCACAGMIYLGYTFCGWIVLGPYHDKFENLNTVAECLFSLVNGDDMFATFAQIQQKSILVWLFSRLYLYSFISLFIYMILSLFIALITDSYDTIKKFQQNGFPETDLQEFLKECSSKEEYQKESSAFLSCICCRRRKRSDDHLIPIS
Description: HEK-293 Trex cells were stably transfected with a construct consisting of the human coding sequence for TRPML1 cloned into the tet-inducible plasmid pCDNA5 T/O. Mutations were introduced into the TRPML1 sequence to facilitate expression on the cell surface (Silvia Vergarajauregui, Rosa Puertollano Traffic. 2006 March; 7 (3): 337-353). Briefly, the cells are cultured in 150 mm round tissue culture dishes containing 20 mL of media. The day before the assay the cells are rinsed with DPBS —Ca—Mg and then treated briefly with Trypsin-EDTA. The Trypsin-EDTA is diluted with growth media, and cells are counted. 38×10^6 cells are re-plated into 150 mm round tissue culture dishes in media containing 0.5 ug/mL doxycycline to induce expression of hTRPML1.
The day of the experiment cells are lifted from the plates as above and collected by centrifugation. The cells are then suspended in dye loading buffer consisting of Ringer's solution supplemented with 0.1% Pluronic Acid and 1 micromolar Fluo4-AM dye. Cells are loaded for ˜60 minutes in the dark with occasional mixing. The cells are collected by centrifugation, the loading media aspirated, and the cells resuspended in 25 mL Ringer's solution and incubated ˜60 minutes in the dark. The cells are again collected by centrifugation, rinsed in Ringer's Solution and resuspended to 0.2×10^6 cells/mL in modified Ringer's solution containing 10 mM calcium.
Compounds are dissolved to a concentration of 10 millimolar with DMSO. Compound plates are created by dispensing compounds into 384 well black wall clear bottom plates (Greiner 781091). Positive and negative controls are included on each plate. Typically, different amounts of each compound are tested ranging from 100 nanoMoles (20 micromolar final concentration) decreasing in half-log steps to 31 picoMoles (6 nanomolar final concentration). Each concentration is typically tested in triplicate.
50 microliters of dye-loaded cells are dispensed into each well of the compound assay plate created above. The fluorescence in each well is then determined with an excitation wavelength of 480 nm and an emission wavelength of 540 nm using either a Molecular Devices SpectraMax multimode plate reader or a Hamamatsu FDSS/uCell plate imager.
The resulting fluorescence for each well is exported as an ascii file and loaded into our LIMS for analysis. The percent activity of each compound at each concentration is determined by comparison to the positive and negative control wells included in each plate.
Assays for TRPML2 and TRPML3 were performed as above for TRPML1, by substituting the appropriate TRPML2 or TRPML3 subtype for the TRPML1.
EC50 values were calculated using a non-linear regression of Prism. In the table, “A” indicates an EC50 of less than 100 nM, “B” indicates an EC50 range from 100 nM to 500 nM; “C” indicates an EC50 range from 500 nM to 2 μM; and “D” indicates an EC50 greater than 2 μM.

TRPML3 = molecular target: T2, TRPML3 (Homo sapiens, UniProt Q8TDD5); assay: Fluorescent TRPML3 assay (as for TRPML1)
T2 construct: expressed in transfected cells
T2 sequence (Q8TDD5 1-553): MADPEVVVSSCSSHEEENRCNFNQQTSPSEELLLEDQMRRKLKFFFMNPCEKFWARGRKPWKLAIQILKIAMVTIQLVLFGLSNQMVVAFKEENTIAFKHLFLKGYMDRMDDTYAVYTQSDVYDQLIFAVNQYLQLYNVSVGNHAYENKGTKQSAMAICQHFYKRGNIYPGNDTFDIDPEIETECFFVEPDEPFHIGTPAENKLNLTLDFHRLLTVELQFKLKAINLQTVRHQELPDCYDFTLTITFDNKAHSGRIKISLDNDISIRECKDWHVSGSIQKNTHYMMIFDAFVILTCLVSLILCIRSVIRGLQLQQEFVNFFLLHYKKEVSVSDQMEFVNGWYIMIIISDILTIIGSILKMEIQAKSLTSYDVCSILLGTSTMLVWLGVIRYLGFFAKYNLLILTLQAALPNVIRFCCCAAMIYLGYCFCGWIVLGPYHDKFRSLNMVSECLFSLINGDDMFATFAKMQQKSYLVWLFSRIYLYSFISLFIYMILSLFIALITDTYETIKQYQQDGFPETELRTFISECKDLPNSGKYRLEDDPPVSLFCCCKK
Summary of the method: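 EC50 came from non-linear regression of percent activity, set against on-plate positive and negative controls, using Fluo4 fluorescence (ex 480, em 540 nm). Compounds ran in triplicate from 6 nM to 20 µM final in half-log steps. Doxycycline-induced (0.5 ug/mL) HEK-293 Trex cells expressing surface-directed mutant channel were in 10 mM calcium Ringer's.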

Chain of human TRPML1 (Q9GZU1 whole entry L15A/L16A/L577A/L578A, form open): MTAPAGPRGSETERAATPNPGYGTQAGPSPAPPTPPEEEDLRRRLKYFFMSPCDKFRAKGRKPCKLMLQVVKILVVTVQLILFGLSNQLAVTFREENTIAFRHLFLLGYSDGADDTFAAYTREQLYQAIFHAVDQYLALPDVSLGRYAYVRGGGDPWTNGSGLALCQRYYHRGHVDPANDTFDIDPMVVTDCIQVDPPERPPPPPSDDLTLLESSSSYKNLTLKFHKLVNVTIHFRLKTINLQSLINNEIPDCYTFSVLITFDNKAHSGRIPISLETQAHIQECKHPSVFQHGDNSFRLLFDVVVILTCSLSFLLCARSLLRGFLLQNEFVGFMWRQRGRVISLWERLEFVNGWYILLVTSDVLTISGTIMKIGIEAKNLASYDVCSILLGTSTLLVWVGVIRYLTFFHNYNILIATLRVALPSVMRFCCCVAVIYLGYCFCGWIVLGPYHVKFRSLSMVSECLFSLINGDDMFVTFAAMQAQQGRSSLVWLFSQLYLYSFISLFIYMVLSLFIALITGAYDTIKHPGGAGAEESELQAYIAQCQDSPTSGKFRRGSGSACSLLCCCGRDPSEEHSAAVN

EC50 (human TRPML1; Table 3, compounds 201-283) [nM]	EC50 (TRPML2; Table 3, compounds 201-283) [nM]	EC50 (TRPML3; Table 3, compounds 201-283) [nM]	EC50 (human TRPML1; Table 3, compounds 101-177) [nM]	EC50 (TRPML2; Table 3, compounds 101-177) [nM]	EC50 (TRPML3; Table 3, compounds 101-177) [nM]	SMILES
< 100	100 to 500	< 100	–	–	–	CC(C)CC(=O)N1CCN(c2ncnc3c2c(N2CCC2)cn3-c2cc(C#N)ccn2)C[C@H]1C [Compound 272, (R)-2-(5-(azetidin-1-yl)-4-(3-methyl-4-(3-methylbutanoyl)piperazin-1-yl)-7H-pyrrolo[2,3-d]pyrimidin-7-yl)isonicotinonitrile]
–	–	–	< 100	< 100	< 100	CC(C)C(=O)N1CCN(c2ncnc3c2c(-c2ccccc2F)cn3-c2cc(C#N)ccn2)C(C)(C)C1 [Compound 149, 2-(5-(2-fluorophenyl)-4-(4-isobutyryl-2,2-dimethylpiperazin-1-yl)-7H-pyrrolo[2,3-d]pyrimidin-7-yl)isonicotinonitrile]
–	–	–	< 100	100 to 500	< 100	C[C@@H]1CN(c2cn(-c3cc(C#N)ccn3)c3ncnc(N4CCN(C(=O)CC(C)(C)C)C[C@@H]4C)c23)CCO1 [Compound 165, 2-(4-((S)-4-(3,3-dimethylbutanoyl)-2-methylpiperazin-1-yl)-5-((R)-2-methylmorpholino)-7H-pyrrolo[2,3-d]pyrimidin-7-yl)isonicotinonitrile]
< 100	> 2000	500 to 2000	–	–	–	C[C@@H]1CN(c2ncnc3c2c(C2CCC2)cn3-c2cccc(C(F)(F)F)c2)[C@@H](C)CN1C(=O)C(C)(C)C [Compound 261, 1-((2R,5S)-4-(5-cyclobutyl-7-(3-(trifluoromethyl)phenyl)-7H-pyrrolo[2,3-d]pyrimidin-4-yl)-2,5-dimethylpiperazin-1-yl)-2,2-dimethylpropan-1-one]
100 to 500	500 to 2000	100 to 500	–	–	–	C[C@@H]1CN(c2ncnc3c2c(C2CCC2)cn3-c2cc(F)cc(F)c2)[C@@H](C)CN1C(=O)C(C)(C)C(F)(F)F [Compound 259, 1-((2R,5S)-4-(5-cyclobutyl-7-(3,5-difluorophenyl)-7H-pyrrolo[2,3-d]pyrimidin-4-yl)-2,5-dimethylpiperazin-1-yl)-3,3,3-trifluoro-2,2-dimethylpropan-1-one]
500 to 2000	100 to 500	100 to 500	–	–	–	CC(C)C(=O)N1C[C@@H](C)N(c2ncnc3c2c(-c2ccccc2F)cn3-c2cc(C#N)ccn2)C[C@@H]1C [Compound 201, 2-(5-(2-fluorophenyl)-4-((2R,5S)-4-isobutyryl-2,5-dimethylpiperazin-1-yl)-7H-pyrrolo[2,3-d]pyrimidin-7-yl)isonicotinonitrile]
100 to 500	> 2000	500 to 2000	–	–	–	C[C@@H]1CN(c2ncnc3c2c(C2CCC2)cn3-c2cc(C#N)ccn2)[C@@H](C)CN1C(=O)C(C)(C)C [Compound 237, 2-(5-cyclobutyl-4-((2S,5R)-2,5-dimethyl-4-pivaloylpiperazin-1-yl)-7H-pyrrolo[2,3-d]pyrimidin-7-yl)isonicotinonitrile]
< 100	< 100	< 100	–	–	–	C[C@@H]1CN(c2ncnc3c2c(-c2ccccc2F)cn3-c2cc(C#N)ccn2)[C@@H](C)CN1C(=O)C(C)(C)C [Compound 230, 2-(4-((2S,5R)-2,5-dimethyl-4-pivaloylpiperazin-1-yl)-5-(2-fluorophenyl)-7H-pyrrolo[2,3-d]pyrimidin-7-yl)isonicotinonitrile]
–	–	–	< 100	100 to 500	< 100	C[C@@H]1CN(c2ncnc3c2c(-c2ccccc2F)cn3-c2cc(C#N)ccn2)[C@@H](C)CN1C(=O)C(C)(C)O [Compound 158, 2-(5-(2-fluorophenyl)-4-((2S,5R)-4-(2-hydroxy-2-methylpropanoyl)-2,5-dimethylpiperazin-1-yl)-7H-pyrrolo[2,3-d]pyrimidin-7-yl)isonicotinonitrile]
100 to 500	500 to 2000	100 to 500	–	–	–	C[C@@H]1CN(c2ncnc3c2c(C2CCC2)cn3-c2cccc(F)c2)[C@@H](C)CN1C(=O)C(C)(C)C(F)(F)F [Compound 252, 1-((2R,5S)-4-(5-cyclobutyl-7-(3-fluorophenyl)-7H-pyrrolo[2,3-d]pyrimidin-4-yl)-2,5-dimethylpiperazin-1-yl)-3,3,3-trifluoro-2,2-dimethylpropan-1-one]
< 100	500 to 2000	< 100	–	–	–	COC(C)(C)C(=O)N1C[C@H](C)N(c2ncnc3c2c(C2CC2)cn3-c2cc(C#N)ccn2)C[C@H]1C [Compound 264, 2-(5-cyclopropyl-4-((2S,5R)-4-(2-methoxy-2-methylpropanoyl)-2,5-dimethylpiperazin-1-yl)-7H-pyrrolo[2,3-d]pyrimidin-7-yl)isonicotinonitrile]
–	–	–	< 100	100 to 500	< 100	C[C@@H]1CN(c2ncnc3c2c(C2CC2)cn3-c2cc(C#N)ccn2)CCN1C(=O)C(C)(C)F [Compound 130, (R)-2-(5-cyclopropyl-4-(4-(2-fluoro-2-methylpropanoyl)-3-methylpiperazin-1-yl)-7H-pyrrolo[2,3-d]pyrimidin-7-yl)isonicotinonitrile]
< 100	100 to 500	< 100	–	–	–	C[C@@H]1CN(c2ncnc3c2c(C(F)(F)F)cn3-c2cc(C#N)ccn2)[C@@H](C)CN1C(=O)C(C)(C)C [Compound 207, 2-(4-((2S,5R)-2,5-dimethyl-4-pivaloylpiperazin-1-yl)-5-(trifluoromethyl)-7H-pyrrolo[2,3-d]pyrimidin-7-yl)isonicotinonitrile]
< 100	< 100	< 100	–	–	–	COC(C)(C)C(=O)N1CCN(c2ncnc3c2c(N2CCC2)cn3-c2cc(C#N)ccn2)C[C@H]1C [Compound 269, (R)-2-(5-(azetidin-1-yl)-4-(4-(2-methoxy-2-methylpropanoyl)-3-methylpiperazin-1-yl)-7H-pyrrolo[2,3-d]pyrimidin-7-yl)isonicotinonitrile]
